Results on five compounds are retold here after PMC10878086, “An RNA replicon system to investigate promising inhibitors of feline coronavirus” (Journal of Virology, 2024).

“And” between values parts separate entries of the source, which are not always exact repeats. Identical values can stand only once. “Also recorded” adds a separate entry of the source. Counter-ions that a name gives are not always drawn. Like-named read-outs stand apart in the source and are kept apart here.

Data set [1] deals with serotype I FCoV replicon RNA in BHK-F-Rep cells. The experiment in a line: microbe, parasite or virus in culture. The data set is classed as cell-based, feline coronavirus (serotype I FECV field strain). The note with it: for IC50: BHK-F-Rep cells, median GFP intensity. As for the experimental part: The BHK-F-Rep cells would specifically allow the evaluation of inhibitors that target viral replication, which includes basic processes such as RNA synthesis and viral polyprotein processing. […] GFP expression was assessed by flow cytometry. […] In addition to GFP detection, immunofluorescence staining of the N-protein was performed as a control of the replication inhibition in an inhibitor experiment (Fig. 2D).
For each inhibitor test, the BHK-F-Rep was cultured in T75 or T150 flasks, washed once with PBS, cells detached with Gibco TrypLE Express (Trypsin; Thermo Fisher Scientific), and then seeded in 12-well plates (25,000 cells/well) in 1 mL/well of cell-culture medium (MEM +10% FBS +50 U/mL Pen/Strep). Directly after seeding, the inhibitor was added to the cells. The plates were incubated for 96 hours at 37°C with 5% CO2.
To assess the GFP expression in BHK and Fcwf-4 cells, the supernatant was removed, the cells were washed once with PBS and then detached with trypsin and transferred to a 96-well plate. The plate was centrifuged at 1,700 rpm for 5 minutes and the supernatant discarded. Cells were once washed again with PBS and again centrifuged at 1,700 rpm for 5 minutes and the supernatant was discarded. For the replicon conditions, the cells were then stained with the LIVE/DEAD Fixable Aqua Dead Cell Stain Kit for 405 nm excitation (Invitrogen) according to the manufacturer’s instructions. As the dead cell control, one of the samples was placed at 60°C for 20 minutes and then stained. After staining, the cells were washed with PBS and centrifuged (1,700 rpm for 5 minutes), and the supernatant was discarded. For the Fcwf-4 cells infected with the recFCoV-GFP, the staining and washing step was not performed. Then, all the cells were washed with PBS before being resuspended in 200 µL PBS and transferred to Falcon 5 mL round-bottom tubes with cell strainer cap (Corning Incorporated) and kept in the dark on ice. Samples were acquired in Cytek Aurora with SpectroFlo Software Version 3.1.0 and analyzed using FlowJo software (FlowJo_v108.1).
Instead, to monitor inhibition, we determined the percent of GFP-positive cells. In either case, the median intensity of the GFP signal or the percentage of GFP-positive cells was normalized to the measurements of untreated conditions, by defining the untreated results of each triplicate as 100%. The value was then subtracted by 100 to get the value representing the percentage of inhibition.
All conditions were tested in triplicates on three different days always including a negative control. Statistical analysis and generation of graphs were performed using GraphPad Prism version 9.3.1 for Windows. The same as CC50, 50% inhibitory concentration (IC50) was determined in GraphPad Prism version 9.3.1 for Windows.

The test system of another data set is BHK-F-Rep cells. The data set is described as follows: In vitro cytotoxicity assay (CytoTox-Glo) on BHK-F-Rep cells. The format is cell-based, hamster. As for the experimental part:
(§1) To define cytotoxic concentrations of the individual inhibitors, cytotoxicity assay with the CytoTox-Glo Cytotoxicity Assay (Promega) was performed according to the manufacturer’s instructions. As a positive control, 75 µg/well of cycloheximide was used. The inhibitors were diluted in DMSO to concentrations so that 2 µL/well could be added to reach the tested concentrations. For luminescence detection, a Hidex Sense with the HidexPlateReader Software 1.0.0 was used. Detection parameters were set for luminescence detection with an infrared cutoff of 1 second. As described by Promega, the difference of viable vs dead cells was calculated in Microsoft Excel 2016, and 50% of cytotoxic concentration (CC50) was determined in GraphPad Prism version 9.3.1 for Windows. The data were fitted to a nonlinear regression curve with log(inhibitor) vs normalized response with variable slope.

Data set [2] concerns recFCoV-GFP (serotype I FIPV strain Black). The data set is described as follows: Inhibitor test with recFCoV-GFP-infected Fcwf-4 cells, flow cytometry of GFP-positive cells. The conditions noted are these: read-out: IC50 recFCoV-GFP flow cytometry. The format is cell-based, feline infectious peritonitis virus. The source says:
(§2) Finally, we assessed GC376 and Remdesivir individually or in combination in a virus infection system. We used the previously described recombinant recFCoV-GFP that is based on the laboratory-adapted serotype I FIPV strain Black and contains the GFP gene as a replacement for the accessory genes 3a–c ([39]). Using this virus, we could measure inhibition by assessing GFP expression or by virus titration. However, the assessment of GFP expression by measuring the median fluorescent intensity, as we did for BHK-F-rep cells, was not possible since recFCoV-GFP-infected Felis catus whole fetus 4 (Fcwf-4) cells died before the reduction of GFP expression was observable. Instead, we determined the number of GFP-positive cells to monitor inhibition (Fig. 5A through C). In parallel, we determined the virus titers released into the cell culture supernatant from inhibitor-treated and infected cells (Fig. 5A through C). […] The results are shown in Fig. 5C and can be compared with Fig. 4A (BHK-F-Rep inhibition) and IC50 values for the different experimental systems are shown in Table 2. […]
To assess the GFP expression in BHK and Fcwf-4 cells, the supernatant was removed, the cells were washed once with PBS and then detached with trypsin and transferred to a 96-well plate. […] Samples were acquired in Cytek Aurora with SpectroFlo Software Version 3.1.0 and analyzed using FlowJo software (FlowJo_v108.1). […]
In general terms: Flow cytometry measures light scatter and fluorescence of single cells or particles in a stream.

The test system is the same in data set [3]. The experiment in a line: Inhibitor test with recFCoV-GFP-infected Fcwf-4 cells, viral titers in supernatant (TCID50). The data set is classed as cell-based, feline infectious peritonitis virus. The note with it: read-out: IC50 recFCoV-GFP viral titers.
Excerpt: as §2
All conditions were tested in triplicates on three different days always including a negative control. […] The selectivity index (SI) was calculated in Microsoft Excel 2016 as follows: SI = CC50/IC50.

Data set [4] can be described thus: In vitro cytotoxicity assay (CytoTox-Glo) on BHK-F-Rep cells. The data set is classed as cell-based, hamster. The conditions noted are these: hamster. The method, then:
as §1

Data set [5] is described as follows: Cell viability testing in recFCoV-GFP infected Fcwf-4 cells. The format is cell-based. The note with it: cat (Felis catus).
Excerpt: Read-out as with the BHK-F-Rep cells done via flow cytometry and detection of GFP-positive cells (relative Inhibition) including IC50 values are shown in black with the left y-axis. As with the BHK-F-Rep cells, data shown on cell viability testing in the recFCoV-GFP infected Fcwf-4 cells are shown in black with the right y-axis including CC50 values. Additional data on viral titers of the recFCoV-GFP infected Fcwf-4 cells treated with the inhibitors and corresponding IC50 values are shown in red. The black and red lines in the graphs represent the mean value of the data collected from three independent experiments of individual drugs or their combination, respectively. The gray and red shaded areas represent the standard error of the mean.
To define cytotoxic concentrations of the individual inhibitors, cytotoxicity assay with the CytoTox-Glo Cytotoxicity Assay (Promega) was performed according to the manufacturer’s instructions. As a positive control, 75 µg/well of cycloheximide was used. […] For luminescence detection, a Hidex Sense with the HidexPlateReader Software 1.0.0 was used. Detection parameters were set for luminescence detection with an infrared cutoff of 1 second. As described by Promega, the difference of viable vs dead cells was calculated in Microsoft Excel 2016, and 50% of cytotoxic concentration (CC50) was determined in GraphPad Prism version 9.3.1 for Windows. […]
Setting [6] is: Alphacoronavirus 1, 96 h, 96 hours, flow cytometry.

A word on the IC50: it is the concentration that inhibits the measured activity by half. One may read the CC50 as the concentration giving 50% cytotoxicity. Low values mean harm at low concentration, high ones better tolerance by the cells.

`CC(C)C[C@H](NC(=O)OCc1ccccc1)C(=O)N[C@@H](C[C@@H]1CCNC1=O)C(O)S(=O)(=O)[O-].[Na+]` (stereo partly drawn) [GC376]: the “GFP expression of BHK-F-Rep cells after treatment (replicon-cured cell line)” value in data set [1] (two consecutive treatments of 96 hours with 20 µM) is “undetectable”.
`CC(C)C[C@H](NC(=O)OCc1ccccc1)C(=O)N[C@@H](CC1CCNC1=O)C(O)S(=O)(=O)O` (stereo partly drawn) [GC376]: the IC50 in data set [1] (96 hours, flow cytometry, read-out: IC50) is < 1000 nM and 990 nM; in data set [2] (Fcwf-4 cells, MOI 0.01, 48 hours, GFP-positive cells), 840 nM; in data set [3] (Fcwf-4 cells, MOI 0.01, 48 hours, TCID50 of supernatant) it was 1010 nM. The compound also had a CC50 in the data set on BHK-F-Rep cells above 200000 nM.
In turn, `CCC(CC)COC(=O)[C@H](C)N[P@](=O)(OC[C@H]1O[C@@](C#N)(c2ccc3c(N)ncnn23)[C@H](O)[C@@H]1O)Oc1ccccc1` [Remdesivir] registered a CC50 in data set [4] of 99100 nM. The IC50 is 1150 nM in data set [2] (Alphacoronavirus 1, 48 h) and 1500 nM in data set [3] (Alphacoronavirus 1, 48 h). This compound showed a CC50 at 48 h in data set [5] above 200000 nM.
With `CC(C)(C)[C@H](NC(=O)C(F)(F)F)C(=O)N1C[C@H]2[C@@H]([C@H]1C(=O)N[C@H](C#N)C[C@@H]1CCNC1=O)C2(C)C` [Nirmatrelvir], the IC50 in data set [1] (setting [6]) is below 1000 nM; in data set [1] (96 hours, flow cytometry), 780 nM. The compound also registered a CC50 in data set [4] above 200000 nM.
On to `CCN(CC)Cc1cc(Nc2ccnc3cc(Cl)ccc23)ccc1O` [Amodiaquine, Amodiaquine dihydrochloride], for which the “inhibitory effect on BHK-F-Rep cells” value in data set [1] (96 hours, flow cytometry, in words) was “did not observe an inhibitory effect; also recorded: did not show any inhibitory effect”. In addition, the IC50 in data set [1] (setting [6]) was above 40000 nM. This compound gave a CC50 in data set [4] of 47200 nM.
